Calls of active or inactive are those of the source. A value given as a limit tells only on which side of the number the result lay.

The subject of one experiment is Streptococcus sp. 'group A'. Description: Streptococcus pyogenes SK(-)GAS viability under kanamycin – luminescence, BacTiterGlo, confirmation, counter-screen for streptokinase expression inhibitor project, dose response (AID 1900). The experiment is classed as functional, organism-based.
Conditions: not given
Background: The purpose of a counterscreen is to sort out artefacts and off-target activity.
As a reminder, the EC50 is the concentration at which the effect is half-maximal. Regarding `COc1cccc(/C=C(/C(=O)OCC(=O)NC2CCCC(C)C2C)c2ccccc2)c1` (stereo not given), the EC50 was 6.28 µM (active).

The next experiment has as its target T1, Zinc finger protein mex-5 (Caenorhabditis elegans, UniProt Q9XUB2).
T1 sequence (Q9XUB2 whole entry): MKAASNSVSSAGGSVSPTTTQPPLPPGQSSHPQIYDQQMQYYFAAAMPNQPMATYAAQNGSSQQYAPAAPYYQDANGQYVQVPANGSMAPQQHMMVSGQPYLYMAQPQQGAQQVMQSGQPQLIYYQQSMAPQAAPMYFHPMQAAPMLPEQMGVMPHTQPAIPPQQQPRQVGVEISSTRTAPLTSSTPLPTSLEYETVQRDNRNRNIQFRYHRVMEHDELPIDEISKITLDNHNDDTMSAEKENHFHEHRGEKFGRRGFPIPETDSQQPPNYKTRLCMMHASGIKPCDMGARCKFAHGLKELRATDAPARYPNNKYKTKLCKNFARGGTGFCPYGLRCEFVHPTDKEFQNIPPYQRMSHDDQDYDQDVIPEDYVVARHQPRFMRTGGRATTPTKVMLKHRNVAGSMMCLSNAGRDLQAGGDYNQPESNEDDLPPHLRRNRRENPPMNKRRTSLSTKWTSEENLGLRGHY
Briefly: potency of MEX-5 RNA-binding blockers – biochemical, C. elegans, fluorescence polarization, dose response (AID 1960).
Conditions: not given
Background: Fluorescence polarisation rises when a labelled molecule tumbles more slowly, as on binding a larger partner.
Turning to `CCN(CC)C(=O)Cn1cc(/C=C2\C(=O)NC(=O)N(c3ccccc3F)C2=O)c2ccccc21`, the EC50 is recorded as > 300 µM (not active).

As for `CC1CC=C2C(C#N)=C(N)C(C#N)(C#N)C(c3cccs3)C2C1` (stereo not given), the EC50 was 14.9 µM (active).

In a further experiment the target is T2, Streptokinase A (Streptococcus pyogenes serotype M1, UniProt P10520).
T2 sequence (P10520 whole entry): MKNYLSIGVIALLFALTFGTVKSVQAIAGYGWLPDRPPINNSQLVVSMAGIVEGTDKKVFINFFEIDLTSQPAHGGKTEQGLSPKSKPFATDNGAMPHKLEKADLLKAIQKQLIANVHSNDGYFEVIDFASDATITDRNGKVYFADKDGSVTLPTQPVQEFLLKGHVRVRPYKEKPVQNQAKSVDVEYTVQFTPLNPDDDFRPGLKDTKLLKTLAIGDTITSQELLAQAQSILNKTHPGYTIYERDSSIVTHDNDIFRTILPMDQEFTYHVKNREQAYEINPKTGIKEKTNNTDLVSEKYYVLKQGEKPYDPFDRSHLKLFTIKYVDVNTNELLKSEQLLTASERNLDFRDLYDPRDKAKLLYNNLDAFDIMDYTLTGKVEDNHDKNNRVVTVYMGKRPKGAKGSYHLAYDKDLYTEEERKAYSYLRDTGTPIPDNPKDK
Briefly: viability-normalized secreted streptokinase activity reduction – plasminogen activation absorbance, OD405, dose response (AID 1914).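 Further: secreted streptokinase activity via plasminogen activation per viability signal from cell pellet.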
Conditions: not given
The experiment is classed as functional, Streptococcus pyogenes M1 GAS.
In the case of `COc1cccc(/C=C(/C(=O)OCC(=O)NC2CCCC(C)C2C)c2ccccc2)c1` (stereo not given), the EC50 was 6.84 µM (active).

Test system in another experiment: not listed separately
Description: microbe, parasite or virus in culture. The experiment is classed as functional. The following applies: Mycobacterium tuberculosis.
As for `Fc1cc(F)cc(Nc2nc(Cl)nc(NC3CCCC3)n2)c1`, the CC50 was > 40 µM (active).

As for `COc1ccc(-c2cn(Cc3ccc(C(=O)NCc4ccc(C)cc4)cc3)c(C(C)N)n2)cc1` (stereo not given), the CC50 was > 40 µM (active).

Take `Oc1cc(CCl)nc(Cc2c(Cl)cccc2Cl)n1`: the CC50 was 21.7 µM (active).

For a further experiment, the target named is T3, Rac GTPase-activating protein 1 (Homo sapiens, UniProt Q9H0H5).
T3 sequence (Q9H0H5 whole entry): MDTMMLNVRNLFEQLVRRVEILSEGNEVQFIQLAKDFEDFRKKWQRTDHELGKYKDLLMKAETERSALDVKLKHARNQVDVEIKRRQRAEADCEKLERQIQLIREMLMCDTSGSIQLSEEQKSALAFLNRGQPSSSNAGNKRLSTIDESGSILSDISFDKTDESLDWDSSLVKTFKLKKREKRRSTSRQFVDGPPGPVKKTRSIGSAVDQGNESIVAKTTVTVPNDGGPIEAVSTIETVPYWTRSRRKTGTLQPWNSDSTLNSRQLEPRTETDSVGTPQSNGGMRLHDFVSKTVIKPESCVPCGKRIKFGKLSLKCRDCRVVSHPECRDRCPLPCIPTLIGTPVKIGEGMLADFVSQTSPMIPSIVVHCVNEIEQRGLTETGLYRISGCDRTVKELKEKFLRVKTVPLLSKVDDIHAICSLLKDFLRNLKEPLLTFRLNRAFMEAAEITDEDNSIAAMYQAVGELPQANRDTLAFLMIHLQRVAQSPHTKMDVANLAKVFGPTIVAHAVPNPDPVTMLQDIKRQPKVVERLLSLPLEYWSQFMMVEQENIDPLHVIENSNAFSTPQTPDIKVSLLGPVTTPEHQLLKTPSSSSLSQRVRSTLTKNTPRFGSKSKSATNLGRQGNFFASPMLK
Description: blockers of MgcRacGAP-driven Rac1 GTP hydrolysis – biochemical, ADP Hunter fluorescence, primary and confirmatory, confirmation (AID 624330). The experiment is classed as functional.
Conditions: not given
The IC50 is the concentration needed to halve the response being measured. Consider `Cc1cc(C)n(CCC(=O)N/N=C/c2ccc(O)cc2)n1`, for which the IC50 is 77.2 µM (active).

Turning to `CC(=O)N1CCN(c2ccc(NCc3cccs3)cc2)CC1`, the half-maximal inhibitory concentration (IC50) is 14.1 µM (active).

As for `Nc1ccc2nc(S)sc2c1`, the IC50 is 30.4 µM (active).

Turning to `Cc1cc(O)ccc1NC(=O)c1ccccc1`, the IC50 was 69.1 µM (active).

A further experiment relates to Streptococcus. Briefly: GAS UMAA2166 growth inhibition – luminescence, BacTiterGlo, counter-screen for streptokinase expression inhibitor project, dose response (AID 1915).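 Further: potency for reduction of bacterial viability or growth.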
Conditions: not given
The experiment is classed as functional, organism-based.
As to `COc1cccc(/C=C(/C(=O)OCC(=O)NC2CCCC(C)C2C)c2ccccc2)c1` (stereo not given), the EC50 is 17.3 µM (active).

In the next experiment the target is Large T antigen (Simian virus 40, UniProt P03070).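 Further: Confirmatory-stage PubChem screen for compounds that inhibit SV40 T antigen.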
Sequence of Large T antigen (P03070 whole entry): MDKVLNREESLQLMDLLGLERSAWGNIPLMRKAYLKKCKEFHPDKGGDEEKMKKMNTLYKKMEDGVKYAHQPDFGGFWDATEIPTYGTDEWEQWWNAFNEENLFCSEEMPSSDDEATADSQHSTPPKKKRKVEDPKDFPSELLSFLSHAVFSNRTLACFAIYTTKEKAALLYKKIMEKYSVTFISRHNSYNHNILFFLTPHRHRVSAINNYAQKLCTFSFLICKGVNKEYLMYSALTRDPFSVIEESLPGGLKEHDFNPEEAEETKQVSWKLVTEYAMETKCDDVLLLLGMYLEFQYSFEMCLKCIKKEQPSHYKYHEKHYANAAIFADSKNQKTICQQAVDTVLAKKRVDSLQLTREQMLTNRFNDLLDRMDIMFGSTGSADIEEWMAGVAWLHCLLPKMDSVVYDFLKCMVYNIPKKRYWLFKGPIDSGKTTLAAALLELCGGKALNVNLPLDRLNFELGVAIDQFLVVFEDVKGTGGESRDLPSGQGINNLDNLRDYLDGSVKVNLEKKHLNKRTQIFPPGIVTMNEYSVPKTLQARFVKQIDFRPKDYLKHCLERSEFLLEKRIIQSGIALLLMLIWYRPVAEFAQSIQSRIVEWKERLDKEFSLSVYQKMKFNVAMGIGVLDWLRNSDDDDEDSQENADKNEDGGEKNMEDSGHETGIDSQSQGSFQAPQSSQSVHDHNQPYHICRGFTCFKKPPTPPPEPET
Assay: not given
Conditions: not given
The experiment is classed as functional, Betapolyomavirus macacae.
Consider `O=C(CN1C(=O)/C(=C\c2ccco2)SC1=S)Nc1ccc(O)cc1C(=O)O`, for which the IC50 was 74.2 µM (active).

Consider `COc1ccc(NC(=O)c2sc(S)nc2N)cc1`, for which the IC50 is 7.51 µM (active).

Take `O=C1N=C(Nc2ccc(O)cc2)S/C1=C/c1ccco1`: the IC50 is 3.47 µM (active).

For the molecule `COc1ccc(-n2c(=O)c3c4c(sc3n3c(S)nnc23)COC(C(C)C)C4)cc1` (stereo not given), the 50% inhibitory concentration (IC50) was 16.7 µM (active).

`Nc1cc(C(=O)O)ccc1Nc1ccccc1`: the IC50 is 12.5 µM (active).

The target of another experiment is Paired box protein Pax-8 (Homo sapiens, UniProt Q06710). Briefly: PAX8 transcriptional activity inhibition in RMG-I – RMG-I cells, luciferase, cherry-pick, dose response (AID 687027).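 Further: luciferase reporter driven by Pax8 target thyroperoxidase promoter measured by SteadyGlo luminescence.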 The experiment is classed as functional, cell-based.
Sequence of Paired box protein Pax-8 (Q06710 whole entry): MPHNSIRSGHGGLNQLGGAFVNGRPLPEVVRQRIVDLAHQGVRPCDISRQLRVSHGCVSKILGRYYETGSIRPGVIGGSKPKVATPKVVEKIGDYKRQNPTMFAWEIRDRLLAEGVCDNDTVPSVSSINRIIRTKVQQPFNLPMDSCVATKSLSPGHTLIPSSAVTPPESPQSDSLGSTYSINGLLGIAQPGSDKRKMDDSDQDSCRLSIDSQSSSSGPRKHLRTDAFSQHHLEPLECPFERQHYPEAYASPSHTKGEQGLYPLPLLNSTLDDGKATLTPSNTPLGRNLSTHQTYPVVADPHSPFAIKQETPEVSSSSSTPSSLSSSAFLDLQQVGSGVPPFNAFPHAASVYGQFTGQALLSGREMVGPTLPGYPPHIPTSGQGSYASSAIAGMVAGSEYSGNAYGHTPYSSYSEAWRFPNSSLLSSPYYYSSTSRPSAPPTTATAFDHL
Conditions: not given
One may read the AC50 as the concentration at which the activity in the assay is half-maximal. In the case of `C[C@@H]1CCCCO[C@H](CN(C)C)[C@H](C)CN([C@H](C)CO)C(=O)c2cc(NC(=O)Nc3cccc4ccccc34)ccc2O1`, the AC50 was 33.5 µM (active).

Consider `C[C@H]1CCCCO[C@H](CN(C)Cc2ccc(Cl)c(Cl)c2)[C@@H](C)CN([C@@H](C)CO)C(=O)c2cc(NC(=O)Nc3ccc(F)cc3)ccc2O1`, for which the AC50 was 25.9 µM (active).

The target in the next experiment is T4, RNA-binding protein pos-1 (Caenorhabditis elegans, UniProt G5EF15).
T4 sequence (G5EF15 whole entry): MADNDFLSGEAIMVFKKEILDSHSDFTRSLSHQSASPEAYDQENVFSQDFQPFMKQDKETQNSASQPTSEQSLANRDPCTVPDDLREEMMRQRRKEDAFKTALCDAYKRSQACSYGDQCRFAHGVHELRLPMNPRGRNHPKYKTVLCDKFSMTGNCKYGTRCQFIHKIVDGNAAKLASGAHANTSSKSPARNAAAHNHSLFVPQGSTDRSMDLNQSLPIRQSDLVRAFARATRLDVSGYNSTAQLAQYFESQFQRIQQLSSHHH
Briefly: disruptors of C. elegans POS-1 RNA interaction – biochemical, fluorescence polarization, dose response (AID 1964).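 Further: purified POS-1 fused to maltose binding protein made in E. coli; potency of compounds blocking POS-1 binding to fluorescent RNA.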
Conditions: not given
Consider `CCN(CC)C(=O)Cn1cc(/C=C2\C(=O)NC(=O)N(c3ccccc3F)C2=O)c2ccccc21`, for which the EC50 is listed as > 300 µM (not active).

Take `CC1CC=C2C(C#N)=C(N)C(C#N)(C#N)C(c3cccs3)C2C1` (stereo not given): the EC50 was 21.7 µM (active).

For a further experiment, the target named is T5, Calpain-2 catalytic subunit (Sus scrofa, UniProt P43367).
T5 sequence (P43367 whole entry): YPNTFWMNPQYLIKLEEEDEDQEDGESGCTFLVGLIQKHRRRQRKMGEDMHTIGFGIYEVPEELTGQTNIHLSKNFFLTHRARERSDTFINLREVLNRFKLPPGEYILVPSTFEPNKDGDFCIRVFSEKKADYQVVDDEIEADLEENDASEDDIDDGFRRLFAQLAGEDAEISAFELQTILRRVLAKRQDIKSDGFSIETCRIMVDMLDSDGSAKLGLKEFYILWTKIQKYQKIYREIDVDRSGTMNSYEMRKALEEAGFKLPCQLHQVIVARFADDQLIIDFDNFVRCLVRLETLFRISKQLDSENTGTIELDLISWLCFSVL
Briefly: m-calpain protease blockers, concentration series – biochemical, fluorogenic peptide substrate, dose response (AID 1420). The experiment is classed as functional.
Conditions: not given
On to `O=C(CSc1nc2ccccc2c(=O)n1-c1ccccc1)N1CCc2ccccc21`, for which the half-inhibitory concentration (IC50) is given as 16.7 µM (not active).

Consider `Cc1ccc2cc(C#N)c(SCC(=O)NNC(=O)Cc3ccccc3)nc2c1`, for which the IC50 is 23.7 µM (not active).

Turning to `O=C(Nc1ccc2c(c1)OCO2)c1c(F)c(F)c(F)c(F)c1F`, the IC50 is > 50 µM (not active).

With `COc1cccc(/C=C(/C(=O)OCC(=O)NC2CCCC(C)C2C)c2ccccc2)c1` (stereo not given), the half-inhibitory concentration (IC50) is recorded as 11.6 µM (not active).

In the case of `CCC(=O)Nc1ccc(Cl)c(NC(=S)NC(=O)c2cc3ccccc3o2)c1`, the half-inhibitory concentration (IC50) was 25.7 µM (not active).

For `Cc1ccc(-c2nn(-c3ccccc3)cc2CNCc2ccccc2)cc1`, the concentration for half-maximal inhibition (IC50) is given as > 50 µM (not active).

Consider `Cc1ccc(Cl)cc1N(Cc1ccc(C(=O)NCc2cccnc2)cc1)S(=O)(=O)c1ccccc1`, for which the half-maximal inhibitory concentration (IC50) is recorded as 7.55 µM (not active).

In the case of `CCOC(=O)C1CCN(c2c([N+](=O)[O-])c(C(Cl)Cl)nn2-c2ccccc2)CC1`, the IC50 is given as 8.97 µM (not active).

As for `COc1cccc(CNC(=O)CN=C(S)N(Cc2ccccc2)Cc2ccccc2F)c1`, the IC50 is recorded as 6.84 µM (not active).

The values above are taken from ChEMBL document CHEMBL1201862, “PubChem BioAssay data set” (2004).
